Source: PubChem BioAssay (NCI)
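Method: 48-hour compound exposure of cells in 96-well plates, five concentrations, linear interpolation of endpoints. Definition used: TGI = concentration required for complete inhibition of growth.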

The molecules below were run on UACC-257 melanoma (assay: NCI anticancer screen, dose series, 48 h).
`O=[N+]([O-])/C(C(Cl)=C(Cl)Cl)=C1\Nc2ccc([N+](=O)[O-])cc2N1` showed a TGI greater than 100 µM. Molecule `OC1=C2c3ccccc3NC2Oc2cc(F)ccc21` (configuration not stated) has a TGI of 41.4 µM.

What follows are molecules tested on PC-3 prostate (assay: NCI anticancer screen, dose series, 48 h).
For `CCOc1cccc(C=Nc2ccccc2SSc2ccccc2N=Cc2cccc(OCC)c2O)c1O`, the TGI was 12.8 µM. Work on `COc1cc(C(=O)NNC(=O)c2cc(Br)ccc2NC(=O)c2cccs2)cc(OC)c1OC` yielded a TGI greater than 100 µM. In the case of `Cc1c2c(cc3c1C(=O)C(=O)C([C@@H](C)CO)=C3O)C(C)(C)CCC2`, the TGI was 48.2 µM. `C[N+]12CCCCC1C(COc1cccc3cccnc13)CCC2` (configuration not stated) was tested, and the TGI was greater than 100 µM. With `NC(=O)NC1NC(=O)NC1=O` (configuration not stated) the TGI was greater than 100 µM. `CC[C@@]1(O)C(=O)OCc2c1cc1n(c2=O)Cc2c-1nc1ccccc1c2/C=N\NC(=O)C[n+]1ccccc1` gave a TGI greater than 100 µM. `COc1ccc(CC2Cc3ccccc3CCN2)cc1OC` (configuration not stated) was tested, and the TGI was greater than 50 µM. Molecule `C=CCN1C(=O)/C(=C/c2ccc(Cl)cc2)N=C1SC/C=C/C` has a TGI greater than 100 µM. Molecule `CC12Nc3c(Cl)cc(Cl)cc3N1C(=O)c1ccccc12` (configuration not stated) has a TGI greater than 100 µM. Work on `CN(C)CCn1c(=O)c2ccc(NCCNCCO)c3c(=O)c4ccccc4n(c1=O)c23` yielded a TGI of 2.09 µM. `OCC1OC(NC(=S)NCCC(F)(F)C(F)(F)C(F)(F)C(F)(F)C(F)(F)C(F)(F)F)C(O)C(O)C1O` (configuration not stated) was tested, and the TGI was greater than 100 µM. Molecule `COC(=O)c1ccccc1/C=C1\Cc2c(ccc3c2CCC3)C1=O` has a TGI greater than 100 µM. For `Nc1cc(Cl)cc2cc(Cl)cnc12`, the TGI was greater than 100 µM. `O=S(=O)(O)CCSSCCS(=O)(=O)O` was tested, and the TGI was greater than 1000 µM. In the case of `CC1=CC[C@H](C[C@H](C#CCCCC2OCCO2)O[Si](C(C)C)(C(C)C)C(C)C)C(=O)CC1`, the TGI was greater than 100 µM. `CC(=O)OCC1OC(NC(=S)Nn2c(=O)[nH]c3ccccc3c2=O)C(OC(C)=O)C(OC(C)=O)C1OC(C)=O` (configuration not stated) was tested, and the TGI was greater than 100 µM. For `Cc1ccc2c(c1)C(=O)C1(C2)Cc2c(C)cccc2C1=O` (configuration not stated), the TGI was greater than 100 µM. In the case of `CC1=NN(c2cccc(S(=O)(=O)O)c2)C2(C1)C(Cl)C(=O)N2c1nc2ccccc2s1` (configuration not stated), the TGI was 22.9 µM. With `O=c1[nH]c(=O)n(C/C=C/CO)nc1Br` the TGI was greater than 100 µM. `O=C1Cc2c([nH]c3ccc(Br)cc23)-c2cc(Br)ccc2N1` gave a TGI greater than 100 µM. `O=C1CC(Br)c2c(Br)sc(Br)c21` (configuration not stated) showed a TGI of 39.4 µM. `CC[C@]12C=CCN3CC[C@@]4(c5cc(Br)c(OC)c([N+](=O)[O-])c5N(C)[C@H]4[C@@](O)(C(=O)OC)[C@@H]1OC(C)=O)[C@@H]32` was tested, and the TGI was greater than 100 µM. In the case of `COc1ccc(CNc2ccn(C3OC(CO)C(O)C3O)c(=O)n2)cc1` (configuration not stated), the TGI was greater than 100 µM. Work on `COc1ccc(NC(=S)Nc2cc(C)ccn2)cc1` yielded a TGI greater than 100 µM. Work on `NC(CSS(=O)(=O)O)=NC1CC2CCC1C2` (configuration not stated) yielded a TGI greater than 100 µM. Molecule `COc1cccc(Nc2nc(C)c([N+](=O)[O-])c(Nc3cccc(OC)c3)n2)c1` has a TGI greater than 100 µM. `O=C(O)c1cccc(Nc2c(C(=O)O)cccc2[N+](=O)[O-])c1` was tested, and the TGI was greater than 100 µM. Molecule `O=c1[nH]c2cccc([N+](=O)[O-])c2c(=O)n1-c1ccc(Cl)cc1` has a TGI of 38.1 µM. For `O=[N+]([O-])/C(C(Cl)=C(Cl)Cl)=C1\Nc2ccc([N+](=O)[O-])cc2N1`, the TGI was greater than 100 µM. Molecule `OC1=C2c3ccccc3NC2Oc2cc(F)ccc21` (configuration not stated) has a TGI of 41.4 µM.

The molecules below were run on A498 renal (assay: NCI anticancer screen, dose series, 48 h).
`CCOc1cccc(C=Nc2ccccc2SSc2ccccc2N=Cc2cccc(OCC)c2O)c1O` gave a TGI of 44 µM. `COc1cc(C(=O)NNC(=O)c2cc(Br)ccc2NC(=O)c2cccs2)cc(OC)c1OC` was tested, and the TGI was 55 µM. `Cc1c2c(cc3c1C(=O)C(=O)C([C@@H](C)CO)=C3O)C(C)(C)CCC2` showed a TGI of 98.9 µM. Work on `C[N+]12CCCCC1C(COc1cccc3cccnc13)CCC2` (configuration not stated) yielded a TGI greater than 100 µM. For `NC(=O)NC1NC(=O)NC1=O` (configuration not stated), the TGI was greater than 100 µM. Work on `CC[C@@]1(O)C(=O)OCc2c1cc1n(c2=O)Cc2c-1nc1ccccc1c2/C=N\NC(=O)C[n+]1ccccc1` yielded a TGI of 21.4 µM. For `COc1ccc(CC2Cc3ccccc3CCN2)cc1OC` (configuration not stated), the TGI was greater than 50 µM. Work on `C=CCN1C(=O)/C(=C/c2ccc(Cl)cc2)N=C1SC/C=C/C` yielded a TGI greater than 100 µM. With `CC12Nc3c(Cl)cc(Cl)cc3N1C(=O)c1ccccc12` (configuration not stated) the TGI was 99.9 µM. `CN(C)CCn1c(=O)c2ccc(NCCNCCO)c3c(=O)c4ccccc4n(c1=O)c23` was tested, and the TGI was 0.458 µM. Work on `OCC1OC(NC(=S)NCCC(F)(F)C(F)(F)C(F)(F)C(F)(F)C(F)(F)C(F)(F)F)C(O)C(O)C1O` (configuration not stated) yielded a TGI of 56.6 µM. In the case of `COC(=O)c1ccccc1/C=C1\Cc2c(ccc3c2CCC3)C1=O`, the TGI was greater than 100 µM. With `Nc1cc(Cl)cc2cc(Cl)cnc12` the TGI was greater than 100 µM. For `O=S(=O)(O)CCSSCCS(=O)(=O)O`, the TGI was greater than 1000 µM. For `CC1=CC[C@H](C[C@H](C#CCCCC2OCCO2)O[Si](C(C)C)(C(C)C)C(C)C)C(=O)CC1`, the TGI was greater than 100 µM. Molecule `CC(=O)OCC1OC(NC(=S)Nn2c(=O)[nH]c3ccccc3c2=O)C(OC(C)=O)C(OC(C)=O)C1OC(C)=O` (configuration not stated) has a TGI greater than 100 µM. `Cc1ccc2c(c1)C(=O)C1(C2)Cc2c(C)cccc2C1=O` (configuration not stated) gave a TGI greater than 100 µM. `CC1=NN(c2cccc(S(=O)(=O)O)c2)C2(C1)C(Cl)C(=O)N2c1nc2ccccc2s1` (configuration not stated) was tested, and the TGI was 34 µM. For `O=c1[nH]c(=O)n(C/C=C/CO)nc1Br`, the TGI was greater than 100 µM. With `O=C1Cc2c([nH]c3ccc(Br)cc23)-c2cc(Br)ccc2N1` the TGI was greater than 100 µM. `O=C1CC(Br)c2c(Br)sc(Br)c21` (configuration not stated) gave a TGI greater than 100 µM. In the case of `CC[C@]12C=CCN3CC[C@@]4(c5cc(Br)c(OC)c([N+](=O)[O-])c5N(C)[C@H]4[C@@](O)(C(=O)OC)[C@@H]1OC(C)=O)[C@@H]32`, the TGI was greater than 100 µM. Work on `COc1ccc(CNc2ccn(C3OC(CO)C(O)C3O)c(=O)n2)cc1` (configuration not stated) yielded a TGI greater than 100 µM. For `COc1ccc(NC(=S)Nc2cc(C)ccn2)cc1`, the TGI was greater than 100 µM. Work on `NC(CSS(=O)(=O)O)=NC1CC2CCC1C2` (configuration not stated) yielded a TGI greater than 100 µM.
